{
  "source": "patent US6407122B1",
  "about": "“Amino-benzothiazole derivatives” (Pharmacia & Upjohn S.p.A., priority 1997, dated 2002)",
  "tested_on": "mixed cortical neuronal cultures",
  "experiment": "Neuroprotection against NMDA (500 μM) toxicity in mixed cortical neuronal cultures, Trypan Blue Dye Exclusion Test",
  "format": "cell-based",
  "conditions": "Rattus norvegicus, Cortical neurone; cultured cortical neurons from foetal rats; 3 min preincubation, 20 min exposure to NMDA 500 μM, viability after 24 hours; mean of at least 3 different experiments; read-out: EC50 (neuroprotective effect)",
  "description": "The efficacy of the compounds of the invention as neuroprotective agents was evaluated in mixed cortical neuronal cultures, following the method reported below.\nMixed cortical neuronal cultures from foetal rats at 16 days of gestation were prepared as described by Choi (j. Neur. Sci. 7: 357-368, 1987). Briefly dissociated cells were plated on poly-L-lysine coated multiwell plates at density of 1*10^5 cells/cm^2 in MEM with Earle's salts supplemented with 21 mM D-glucose, 2 mM L-glutamine, 50 μg/ml Streptomicin, 50 IU Penicillin, 10% Foetal Calf Serum and 10% Horse Serum. Cultures were kept at 37° C., 5% CO2 and survived about 5 weeks. After 7 days in vitro, astrocites proliferation was inhibited by adding 10 μM Cytosine Arabinoside for 48 hours; the medium was subsequently substituted twice a week with a fresh medium without foetal call serum (Hatley, J. Pharm. and Exp. Ther. 250 (II);752-758, 1989).\nOnly nature cortical cultures, from 14 DIV on, were used for the study. Experiments were performed at 25° C. as follows: cells were washed once with a Locke's buffer, (128 mM NaCl, […], 1.2 mM Na2HPO4, 2.7 mM CaCl2, 20 mM Hepes and 10 mM D-glucose) pH=7.4, then preincubated with the test compounds for 3 min. followed by a 20 min. exposure to N-methyl-D-aspartate (NMDA) (500 μM).\nThe incubation was stopped by removing Locke's buffer and substituting the conditioned medium. […]",
  "data": [
    {"smiles": "Nc1nc2ccc(CCN3CCC(Cc4ccccc4)CC3)cc2s1", "note": "[Example 15, 1-(2-Amino-benzothiazol-6-yl)-2-(4-benzyl-piperidin-1-yl)-ethane]", "values": [
      {"measurement": "EC50", "result": 640, "unit": "nM"}
    ]},
    {"smiles": "OC(CN1CCC(Cc2ccc(F)cc2)CC1)c1ccc(Cl)cc1", "note": "(centres unmarked) [Eliprodil]", "values": [
      {"measurement": "EC50", "result": 2260, "unit": "nM"}
    ]}
  ]
}
